Several values for one entry are separate records, joined by “and”; a condition that tells them apart may be missing. Identical values can stand only once.
Test: molar heat capacity at constant volume; wn = mass fraction of the nth substance listed
Settings: Liquid, Vacuum adiabatic calorimetry, w2 = 0.4981

FC(F)C(F)(F)F [pentafluoroethane] + FCF
Settings | molar heat capacity at constant volume
277.15 K, 11982 kPa | 66.66 J/K/mol
278.15 K, 12826 kPa | 66.08 J/K/mol
279.15 K, 13669 kPa | 66.51 J/K/mol
280.15 K, 14512 kPa | 66.73 J/K/mol
281.15 K, 15355 kPa | 66.15 J/K/mol
282.15 K, 16198 kPa | 66.44 J/K/mol
283.15 K, 17040 kPa | 65.86 J/K/mol
284.15 K, 17881 kPa | 67.75 J/K/mol
285.15 K, 18722 kPa | 66.22 J/K/mol
286.15 K, 19563 kPa | 66.08 J/K/mol
287.15 K, 20403 kPa | 66.15 J/K/mol
288.15 K, 21239 kPa | 65.93 J/K/mol
289.15 K, 22077 kPa | 67.1 J/K/mol
291.15 K, 23750 kPa | 66.88 J/K/mol
292.15 K, 24585 kPa | 66.81 J/K/mol
293.15 K, 25420 kPa | 65.64 J/K/mol
294.15 K, 26254 kPa | 66.37 J/K/mol
295.15 K, 27085 kPa | 65.28 J/K/mol
296.15 K, 27917 kPa | 67.31 J/K/mol
297.15 K, 8118 kPa | 66.88 J/K/mol
297.15 K, 28747 kPa | 66.22 J/K/mol
298.15 K, 29575 kPa | 66.01 J/K/mol
299.15 K, 9422 kPa | 68.48 J/K/mol
300.15 K, 10072 kPa | 69.35 J/K/mol
300.15 K, 10089 kPa | 66.22 J/K/mol
301.15 K, 10723 kPa | 68.99 J/K/mol
301.15 K, 10737 kPa | 69.93 J/K/mol
302.15 K, 11374 kPa | 69.2 J/K/mol
302.15 K, 11385 kPa | 67.31 J/K/mol
303.15 K, 12024 kPa | 69.2 J/K/mol
303.15 K, 12032 kPa | 68.7 J/K/mol
304.15 K, 12672 kPa | 68.91 J/K/mol
304.15 K, 12680 kPa | 68.77 J/K/mol
305.15 K, 13320 kPa | 69.57 J/K/mol
305.15 K, 13327 kPa | 69.06 J/K/mol
306.15 K, 13970 kPa | 69.06 J/K/mol
306.15 K, 13973 kPa | 68.99 J/K/mol
307.15 K, 14620 kPa | 68.62 J/K/mol and 68.33 J/K/mol
308.15 K, 15268 kPa | 69.71 J/K/mol and 68.11 J/K/mol
309.15 K, 15915 kPa | 68.62 J/K/mol
309.15 K, 15917 kPa | 69.57 J/K/mol
310.15 K, 16562 kPa | 68.55 J/K/mol
310.15 K, 16564 kPa | 68.84 J/K/mol
311.15 K, 17208 kPa | 69.13 J/K/mol
311.15 K, 17212 kPa | 68.99 J/K/mol
312.15 K, 17853 kPa | 68.91 J/K/mol
312.15 K, 17859 kPa | 68.41 J/K/mol
313.15 K, 18499 kPa | 66.81 J/K/mol
313.15 K, 18506 kPa | 68.77 J/K/mol
314.15 K, 19144 kPa | 68.48 J/K/mol
314.15 K, 19153 kPa | 69.13 J/K/mol
315.15 K, 19788 kPa | 68.41 J/K/mol
315.15 K, 19798 kPa | 69.35 J/K/mol
316.15 K, 20432 kPa | 68.55 J/K/mol
316.15 K, 20443 kPa | 68.41 J/K/mol
317.15 K, 21075 kPa | 68.48 J/K/mol
317.15 K, 21088 kPa | 68.62 J/K/mol
318.15 K, 21719 kPa | 67.75 J/K/mol
318.15 K, 21733 kPa | 68.55 J/K/mol
319.15 K, 22362 kPa | 68.33 J/K/mol
319.15 K, 22377 kPa | 67.9 J/K/mol
320.15 K, 23005 kPa | 69.71 J/K/mol
320.15 K, 23021 kPa | 69.2 J/K/mol
321.15 K, 23648 kPa | 67.1 J/K/mol
321.15 K, 23665 kPa | 68.33 J/K/mol
322.15 K, 24289 kPa | 70.15 J/K/mol
322.15 K, 24307 kPa | 68.41 J/K/mol
323.15 K, 24930 kPa | 68.41 J/K/mol
323.15 K, 24949 kPa | 69.71 J/K/mol
324.15 K, 25571 kPa | 68.77 J/K/mol
324.15 K, 25590 kPa | 68.04 J/K/mol
325.15 K, 26210 kPa | 67.61 J/K/mol
325.15 K, 26231 kPa | 68.41 J/K/mol
326.15 K, 26850 kPa | 68.62 J/K/mol
326.15 K, 26871 kPa | 68.11 J/K/mol
327.15 K, 27488 kPa | 68.55 J/K/mol
327.15 K, 27511 kPa | 67.75 J/K/mol
328.15 K, 28127 kPa | 68.62 J/K/mol
328.15 K, 28150 kPa | 68.19 J/K/mol
329.15 K, 5865 kPa | 70.22 J/K/mol
329.15 K, 5904 kPa | 72.11 J/K/mol
329.15 K, 28764 kPa | 69.13 J/K/mol
329.15 K, 28790 kPa | 68.62 J/K/mol
330.15 K, 6231 kPa | 73.78 J/K/mol
330.15 K, 6255 kPa | 72.33 J/K/mol
330.15 K, 6269 kPa | 69.13 J/K/mol
330.15 K, 29402 kPa | 68.04 J/K/mol
330.15 K, 29426 kPa | 67.97 J/K/mol
331.15 K, 6598 kPa | 70.66 J/K/mol
331.15 K, 6620 kPa | 71.09 J/K/mol
331.15 K, 6635 kPa | 70.15 J/K/mol
331.15 K, 30065 kPa | 69.93 J/K/mol
332.15 K, 6965 kPa | 73.2 J/K/mol
332.15 K, 6987 kPa | 73.28 J/K/mol
332.15 K, 7002 kPa | 71.46 J/K/mol
333.15 K, 7333 kPa | 71.39 J/K/mol
333.15 K, 7355 kPa | 71.82 J/K/mol
333.15 K, 7370 kPa | 69.13 J/K/mol
334.15 K, 7700 kPa | 71.17 J/K/mol
334.15 K, 7723 kPa | 71.02 J/K/mol
334.15 K, 7736 kPa | 71.24 J/K/mol
335.15 K, 8069 kPa | 71.02 J/K/mol
335.15 K, 8090 kPa | 72.62 J/K/mol
335.15 K, 8104 kPa | 70.51 J/K/mol
336.15 K, 8438 kPa | 70.73 J/K/mol
336.15 K, 8457 kPa | 69.5 J/K/mol
336.15 K, 8472 kPa | 70.88 J/K/mol
337.15 K, 8807 kPa | 71.02 J/K/mol
337.15 K, 8826 kPa | 71.53 J/K/mol
337.15 K, 8840 kPa | 69.42 J/K/mol
338.15 K, 9176 kPa | 71.02 J/K/mol
338.15 K, 9194 kPa | 71.39 J/K/mol
338.15 K, 9209 kPa | 69.42 J/K/mol
339.15 K, 9546 kPa | 70.66 J/K/mol
339.15 K, 9563 kPa | 71.39 J/K/mol
339.15 K, 9579 kPa | 69.57 J/K/mol
340.15 K, 9916 kPa | 70.3 J/K/mol
340.15 K, 9933 kPa | 70.37 J/K/mol
340.15 K, 9949 kPa | 68.91 J/K/mol
341.15 K, 10286 kPa | 70.44 J/K/mol
341.15 K, 10302 kPa | 70.95 J/K/mol
341.15 K, 10320 kPa | 70.15 J/K/mol
342.15 K, 10657 kPa | 69.79 J/K/mol
342.15 K, 10672 kPa | 70.59 J/K/mol
342.15 K, 10691 kPa | 68.55 J/K/mol
343.15 K, 11028 kPa | 70.15 J/K/mol
343.15 K, 11043 kPa | 71.46 J/K/mol
343.15 K, 11061 kPa | 70.08 J/K/mol
344.15 K, 11399 kPa | 70.08 J/K/mol
344.15 K, 11413 kPa | 70.59 J/K/mol
344.15 K, 11431 kPa | 68.99 J/K/mol
345.15 K, 6187 kPa | 86.29 J/K/mol
345.15 K, 11770 kPa | 69.79 J/K/mol
345.15 K, 11784 kPa | 71.39 J/K/mol
345.15 K, 11802 kPa | 69.35 J/K/mol
346.15 K, 6420 kPa | 87.01 J/K/mol
346.15 K, 12143 kPa | 70.3 J/K/mol
346.15 K, 12155 kPa | 70.37 J/K/mol
346.15 K, 12174 kPa | 68.62 J/K/mol
347.15 K, 6655 kPa | 85.49 J/K/mol
347.15 K, 6657 kPa | 86.07 J/K/mol
347.15 K, 12515 kPa | 70.44 J/K/mol
347.15 K, 12527 kPa | 72.33 J/K/mol
347.15 K, 12547 kPa | 69.35 J/K/mol
348.15 K, 6890 kPa | 85.63 J/K/mol
348.15 K, 6893 kPa | 86.51 J/K/mol
348.15 K, 12887 kPa | 69.06 J/K/mol
348.15 K, 12899 kPa | 70.15 J/K/mol
348.15 K, 12919 kPa | 68.84 J/K/mol
349.15 K, 7127 kPa | 83.74 J/K/mol
349.15 K, 7130 kPa | 86.51 J/K/mol
349.15 K, 13259 kPa | 69.86 J/K/mol
349.15 K, 13271 kPa | 70.95 J/K/mol
349.15 K, 13292 kPa | 69.42 J/K/mol
350.15 K, 7364 kPa | 85.2 J/K/mol
350.15 K, 7368 kPa | 84.47 J/K/mol
350.15 K, 13631 kPa | 69.42 J/K/mol
350.15 K, 13643 kPa | 70.15 J/K/mol
350.15 K, 13664 kPa | 69.28 J/K/mol
351.15 K, 7602 kPa | 84.11 J/K/mol
351.15 K, 7606 kPa | 85.42 J/K/mol
351.15 K, 14004 kPa | 70.08 J/K/mol
351.15 K, 14015 kPa | 70.73 J/K/mol
351.15 K, 14036 kPa | 68.48 J/K/mol
352.15 K, 7841 kPa | 83.23 J/K/mol
352.15 K, 7845 kPa | 84.11 J/K/mol
352.15 K, 14377 kPa | 69.06 J/K/mol
352.15 K, 14387 kPa | 70.22 J/K/mol
352.15 K, 14409 kPa | 68.84 J/K/mol
353.15 K, 8080 kPa | 82.36 J/K/mol
353.15 K, 8084 kPa | 83.16 J/K/mol
353.15 K, 14750 kPa | 70.08 J/K/mol
353.15 K, 14761 kPa | 71.46 J/K/mol
353.15 K, 14783 kPa | 68.41 J/K/mol
354.15 K, 8320 kPa | 83.38 J/K/mol
354.15 K, 8324 kPa | 83.89 J/K/mol
354.15 K, 15123 kPa | 69.5 J/K/mol
354.15 K, 15133 kPa | 70.59 J/K/mol
354.15 K, 15157 kPa | 68.48 J/K/mol
355.15 K, 8560 kPa | 82.73 J/K/mol
355.15 K, 8565 kPa | 84.62 J/K/mol
355.15 K, 15496 kPa | 69.64 J/K/mol
355.15 K, 15507 kPa | 70.59 J/K/mol
355.15 K, 15531 kPa | 69.64 J/K/mol
356.15 K, 8801 kPa | 83.45 J/K/mol
356.15 K, 8806 kPa | 82.87 J/K/mol
356.15 K, 15869 kPa | 70.59 J/K/mol
356.15 K, 15880 kPa | 69.93 J/K/mol
356.15 K, 15904 kPa | 68.99 J/K/mol

Reference: the NIST ThermoML archive (doi:10.1007/s10765-010-0766-0)
